From the supplement of paper PMC11997997

Columns and labels:
[1] = tested on: murine bone marrow-derived macrophages; assay: area under cytotoxicity dose-response curve (AUC (% cytotoxicity x dose, relative)); higher = more cytotoxic; details: duration: 6 days; dose range: 0.13-80 uM, 8 points
Outline: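 Cytotoxicity is expressed as the area under the dose–response curve from GraphPad Prism version 10. To obtain it, primary murine bone marrow-derived macrophages were incubated for 6 days at 37 °C in 5% CO2 across final concentrations of 80–0.13 μM. Viability came from CellTiter-Glo luminescence, and percent cytotoxicity was normalised to vehicle and positive control wells.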

[2] = tested on: Mycobacterium tuberculosis CDC1551 (intracellular, in murine BMDM); assay: area under intracellular growth-inhibition dose-response curve (AUC (% inhibition x dose, relative)); higher = more potent; details: duration: 6 days; dose range: 0.13-80 uM, 8 points
Outline: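 In 384-well opaque plates, primary murine bone marrow-derived macrophages were infected with luciferase-expressing M. tuberculosis CDC1551 (multiplicity of infection 1, 1 h) 24 h after seeding, then treated for 6 days across final concentrations of 80–0.13 μM. Growth was measured by Bright-Glo luciferin assay, normalised to a reference drug control and the lowest-concentration wells. The reported value is the area under the growth-inhibition dose–response curve from GraphPad Prism.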

Structure (SMILES) | area under cytotoxicity dose-response curve [1] | area under intracellular growth-inhibition dose-response curve [2]
CCOc1ncnc2c1oc1nc(CC(C)C)c3c(c12)CC(C)(C)OC3 | 63.6 | 115
COc1cccc2c1nc(C)c1cc(C)oc12 | < 0 | 121
CC(=O)/C=C(\C)Nc1ccccc1O | 95 | 54.6
Cn1ncc2cc(NC(N)=S)ccc21 | < 0 | 196
Cc1ccc(-c2cc(-c3ccccc3)cc(-c3ccccc3)[n+]2-c2ccccc2)cc1.[O-][Cl+3]([O-])([O-])[O-] | 23.7 | 91.8
O=c1c2ccccc2oc2nc3n(c(=O)c12)CCCS3 | 47.5 | 223
Cn1c(=O)n(C)c2cc(/C=N/NC(N)=S)ccc21 | < 0 | 262
O=C(NCC1CCCCC1)c1ccc([N+](=O)[O-])cc1 | 77.6 | 239
CCCOc1ccc(C(=O)CCC(=O)NNC(=O)c2ccncc2)cc1 | < 0 | 269
CN(C)[C@@H]1C(=O)C(C(N)=O)=C(O)[C@@]2(O)C(O)=C3C(=O)c4c(O)cccc4[C@@](C)(O)C3[C@H](O)C12.Cl (stereo partly specified) | 62.5 | 271
CC1CCN(C(=O)C2COc3ccccc3O2)CC1 (stereo unspecified) | < 0 | 265
O=C(Nc1ccc(F)cc1)NC1CCCCCCC1 | 144 | 182
Cc1cc(/C=N/NC(N)=S)c(C)n1-c1cccc(Cl)c1 | 34 | 190
CC(C)(C)C(=O)/C=C/Nc1ccccc1O | 5.21 | 88
CN1CCN2c3ccccc3Cc3ccccc3C2C1.Cl (stereo unspecified) | < 0 | 118
CC(NC(=O)c1ccccc1)c1ccc(F)cc1 (stereo unspecified) | < 0 | 265
COc1ccc(NC(=S)Nc2ccc(Oc3ccccc3)cc2)cc1 | < 0 | 233
O=C(COC(=O)c1ccc([N+](=O)[O-])o1)Nc1ccc(F)cc1 | < 0 | 144
O=C(/C=C/c1cccs1)N1CCN(Cc2ccc3c(c2)OCO3)CC1 | < 0 | 271
NC(=S)N/N=C/c1cccc(/C=N/NC(N)=S)c1 | 91.2 | 177
O=[N+]([O-])c1cc([N+](=O)[O-])c2nonc2c1Nc1ccccc1O | 5.05 | 146
COc1ccccc1/C=C1\SC(=S)N(CCC(=O)Nc2ccc(C(=O)O)c(O)c2)C1=O | < 0 | 124
Cc1ccc(S(=O)(=O)c2ccc([N+](=O)[O-])cn2)cc1 | 102 | < 0
CCCC(=O)NC(=S)Nc1ccc(N2CCN(C(=O)c3cccs3)CC2)cc1 | < 0 | 274

Structure (SMILES) | area under cytotoxicity dose-response curve [1] | area under intracellular growth-inhibition dose-response curve [2]
FC(F)(Cl)c1nnc2ccc(Cl)nn12 | 26.5 | 126
Cc1ccc(C(C)C)c(OCc2n[n+](CC(=O)c3ccc(Cl)cc3)c3n2CCCCC3)c1.[Br-] | < 0 | 169
Cc1c(Cc2ccccc2)c(NCCCO)n2c(nc3ccccc32)c1C#N | < 0 | 148
CCN(CC)CCN(C(=O)C1=COCCO1)c1nc2cc(C)cc(C)c2s1.Cl | 22.7 | 227
O=C(Cn1nnc(-c2ccc(F)cc2)n1)Nc1cccc(S(=O)(=O)N2CCCC2)c1 | 11.8 | 73.7
CCN1/C(=C/c2ccc3cc(C)ccc3[n+]2CC)Sc2ccccc21.[I-] | 176 | 144
O=C(CSc1cccc[n+]1[O-])c1cc(Cl)ccc1Cl | 47.3 | 127
O=C(NCc1ccc2c(c1)OCO2)c1ccc(Br)o1 | 76.4 | 174
Cc1ccc(C(=O)NCc2ccc(Cl)cc2)o1 | 15.1 | 263
Cc1ccc(C)c(N2CCN(CCCNC(=O)Cn3cccc3C(=O)c3ccccc3C)CC2)c1 | 3.91 | 84.4
CCN1/C(=C/c2ccc3cc(C)ccc3[n+]2C)Sc2ccc3sccc3c21.[I-] | 180 | 149
O=[N+]([O-])c1ccc(CN2CCN(c3ccccc3)CC2)o1 | 42.8 | 254
CCNC(=S)N/N=C(\C)c1ccc(N2CCOCC2)cc1 | 43.5 | 164
Cc1c(C)c2cccnc2c2ncccc12 | 36.7 | 162
CCC(=O)NC(=S)Nc1ccc(NC(=O)c2ccc(OC)cc2)cc1 | < 0 | 266
O=C(/C=C/c1ccco1)c1ccc(NC(=O)C23CC4CC(CC(C4)C2)C3)cc1 | < 0 | 260
Cc1ccc(/C=N/NC(=O)c2ccncc2)o1 | 78.6 | 213
CCC(=O)NC(=S)Nc1ccc(NC(=O)c2ccccc2[N+](=O)[O-])cc1 | 32.7 | 267
COc1cc(/C=C/C(=O)c2ccc([N+](=O)[O-])o2)ccc1O | 107 | 76
C/C(=C\c1ccccc1)C(=O)NCc1ccco1 | 134 | 111
CNC[C@H](Cc1ccccc1)NC[C@@H](Cc1cccc2ccccc12)NCCc1ccc(C)cc1 | 108 | 53.8
CC(=O)Nc1ccc(-c2c(C)cc3oc(=O)cc(-c4ccccc4)c3c2C)cc1 | 113 | 221
O=C(CNC(=O)c1ccc([N+](=O)[O-])cc1)N/N=C\c1ccc(OC(=O)c2ccccc2)cc1 | < 0 | 109
CC(=O)NC(=S)Nc1ccc(NC(=O)COc2ccc(Cl)cc2Cl)cc1 | 38.6 | 220
